The subject of series [1] is caspase 3/7 in CRC cells. Kind of series: Caspase-Glo 3/7 activity. It is filed as cell-based, human. As to conditions: 10 µM, 48 h, relative to DMSO. The method, then:
Caspase 3/7 activity was determined with a Caspase-Glo 3/7 assay kit (Promega). CRC cells were seeded in 96 well plates, 10000 per well cells, with media containing 2% FBS. Treatments were applied after overnight incubation, incubated for 48 hours. After treatment, Caspase-Glo reagent was added to each well and incubated in the dark for 1 hour. […] was recorded with the GloMax® Microplate Reader.

Series [2] has as its system CT26–iRFP cells. As to the kind of experiment: CT26–iRFP derived tumor growth model. The class given is in vivo, BALB/C mice. As to conditions: 5, 10, or 20 mg/kg intraperitoneally every other day. The method, then: The antitumor efficacy of VDAC1/PHB/MMP‐binding compound was evaluated using a xenograft model. Six‐week‐old male BALB/C mice were obtained from OrientBio. 1 × 10⁶ CT26 cells were subcutaneously implanted to each mouse. After 1 week inoculation, mice were treated with intraperitoneal injections of either vehicle (DMSO/PBS) or SB4 at a dose of 5, 10 and 20 mg/kg, administered every other day. Tumor volumes and body weight was measured every 2 days. Bioimaging of near‐infrared fluorescence was obtained using a FOBI system (Cellgentek, Osong, Korea) for three time point. After euthanizing the mice, tumor tissues were successfully collected, and the tumor weight was measured for each sample. According to the Guiding Principles in the Care and Use of Animals (DHEW publication, NIH 80–23), the in vivo experiments were performed with the approval of the Sunchon National University Research Institutional Animal Care and Use Committee (SCNU IACUC‐2024‐17).

Consider 2 compounds from publication PMC12579162, “Synthesized Depside Molecules Suppress the Progression of Colorectal Cancer by Binding VDAC1/PHB/MMP9 Being at the Crossroads of Stemness, Motility, Apoptosis, and Metabolism” (MedComm, 2025).

For the compound `COCCCOc1c(C)c(OC(=O)c2c(C)cc(OC)c(C)c2OC)cc(C)c1C(=O)OC` [SB5, 4-(Methoxycarbonyl)-3-(3-methoxypropoxy)-2,5-dimethylphenyl 2,4-dimethoxy-3,6-dimethylbenzoate], the “caspase 3/7 activity” value in series [1] is “induced”.

In the case of `COCCOc1c(C)c(OC(=O)c2c(C)cc(OC)c(C)c2OC)cc(C)c1C(=O)OC` [SB4, 4-(Methoxycarbonyl)-3-(2-methoxyethoxy)-2,5-dimethylphenyl 2,4-dimethoxy-3,6-dimethylbenzoate], in series [1], the “caspase 3/7 activity” value is recorded as “induced”. The mouse body weight entry in series [2] is on record as “did not influence mouse body weight”. Besides, the “tumor volume and weight” value in series [2] (versus control) is “significantly reduced both tumor volume and weight in a dose‐dependent manner”.
